Target: T1, human LPA1 receptor (Homo sapiens, UniProt Q92633)
T1 construct: TEV protease site; Gal4-VP16 transcription factor; host or cells: Tango EDG2-bla U2OS cells
Assay: Beta-arrestin recruitment assay to determine IC50 values for human LPAR1
Type: cell-based
Conditions: Tango EDG2-bla U2OS cells, antagonist assay, LPA 18:1 500 nM final
How it was run: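 Tango EDG2-bla U2OS cells were preincubated 30 min at 37 °C with compound. They were then stimulated with 500 nM (final) LPA 18:1 for 16 h. β-Lactamase reporter read by LiveBLAzer FRET substrate (2 h) as the 460/530 nm ratio; IC50 from 4-parameter logistic fit.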

T1 sequence (Q92633 whole entry, the tested form may be a part): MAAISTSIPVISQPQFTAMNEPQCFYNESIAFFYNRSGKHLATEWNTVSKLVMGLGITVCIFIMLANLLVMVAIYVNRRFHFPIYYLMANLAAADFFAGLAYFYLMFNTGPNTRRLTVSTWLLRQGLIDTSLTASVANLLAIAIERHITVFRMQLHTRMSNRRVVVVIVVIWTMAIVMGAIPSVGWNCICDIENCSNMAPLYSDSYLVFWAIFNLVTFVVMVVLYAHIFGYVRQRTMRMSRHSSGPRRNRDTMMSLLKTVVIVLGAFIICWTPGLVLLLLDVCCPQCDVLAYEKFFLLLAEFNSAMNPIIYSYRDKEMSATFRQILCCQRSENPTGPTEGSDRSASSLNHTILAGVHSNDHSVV

Row | IC50 [nM] | Compound
1 | 21 | CCOc1cc(Cl)ncc1NC(=O)C1(c2ccccc2C(C)C)CN(CCCC(C)(C)C(=O)O)C1 [Example 18-27, 5-(3-((6-chloro-4-ethoxypyridin-3-yl)carbamoyl)-3-(2-isopropylphenyl)azetidin-1-yl)-2,2-dimethylpentanoic acid]
2 | 16 | CC(C)Oc1cc(Cl)ncc1NC(=O)C1(c2ccccc2C(C)C)CN(CCC(C)(C)C(=O)O)C1 [Example 18-20, 4-(3-((6-chloro-4-isopropoxypyridin-3-yl)carbamoyl)-3-(2-isopropylphenyl)azetidin-1-yl)-2,2-dimethylbutanoic acid]
3 | 29 | COc1cc(Cl)ncc1NC(=O)C1(c2ccccc2C(C)C)CN(c2cc(Cl)nc(C)n2)C1 [Example 24-15, 1-(6-chloro-2-methylpyrimidin-4-yl)-N-(6-chloro-4-methoxypyridin-3-yl)-3-(2-isopropylphenyl)azetidine-3-carboxamide]
4 | 91 | COc1cc(Cl)ncc1NC(=O)C1(c2ccccc2C(C)C)CN(c2cc(C)nc(C)c2)C1 [Example 24-6, N-(6-chloro-4-methoxypyridin-3-yl)-1-(2,6-dimethylpyridin-4-yl)-3-(2-isopropylphenyl)azetidine-3-carboxamide]
5 | 18 | COc1cc(Cl)ncc1NC(=O)C1(c2ncccc2C(C)C)CN(C(=O)NC2CC2)C1 [Example 22-7, N3-(6-chloro-4-methoxypyridin-3-yl)-N1-cyclopropyl-3-(3-isopropylpyridin-2-yl)azetidine-1,3-dicarboxamide]
6 | 6 | COC(=O)N1CC(C(=O)Nc2cnc(Cl)cc2OC)(c2ccccc2C(C)C)C1 [Example 23-1, Methyl 3-((6-chloro-4-methoxypyridin-3-yl)carbamoyl)-3-(2-isopropylphenyl)azetidine-1-carboxylate]
7 | 35 | COc1cc(Cl)ncc1NC(=O)C1(c2ccccc2C(C)C)CN(CC(C)C)C1 [Example 18-2, N-(6-chloro-4-methoxypyridin-3-yl)-1-isobutyl-3-(2-isopropylphenyl)azetidine-3-carboxamide]
8 | 6 | CC(C)c1ccccc1C1(C(=O)Nc2cnc(Cl)cc2OC2CC2)CN(S(N)(=O)=O)C1 [Example 21-5, N-(6-chloro-4-cyclopropoxypyridin-3-yl)-3-(2-isopropylphenyl)-1-sulfamoylazetidine-3-carboxamide]
9 | 143 | COc1cc(Cl)ncc1NC(=O)C1(c2ccccc2C(C)C)CN(CCc2nnn[nH]2)C1 [Example 18-4, 1-(2-(1H-tetrazol-5-yl)ethyl)-N-(6-chloro-4-methoxypyridin-3-yl)-3-(2-isopropylphenyl)azetidine-3-carboxamide]
10 | 21 | COc1cc(Cl)ncc1NC(=O)C1(c2ccccc2C(C)C)CN(S(=O)(=O)CCO)C1 [Example 20-3, N-(6-chloro-4-methoxypyridin-3-yl)-1-((2-hydroxyethyl)sulfonyl)-3-(2-isopropylphenyl)azetidine-3-carboxamide]
11 | 15 | COCCNC(=O)N1CC(C(=O)Nc2cnc(Cl)cc2OC)(c2ccccc2C(C)C)C1 [Example 22-10, N3-(6-chloro-4-methoxypyridin-3-yl)-3-(2-isopropylphenyl)-N1-(2-methoxyethyl)azetidine-1,3-dicarboxamide]
12 | 73 | COCCNS(=O)(=O)N1CC(C(=O)Nc2cnc(Cl)cc2OC)(c2ccccc2C(C)C)C1 [Example 21-20, N-(6-chloro-4-methoxypyridin-3-yl)-3-(2-isopropylphenyl)-1-(N-(2-methoxyethyl)sulfamoyl)azetidine-3-carboxamide]
13 | 12 | CCOc1cc(Cl)ncc1NC(=O)C1(c2ccccc2C(C)C)CN(C(=O)CC(C)(C)C(=O)O)C1 [Example 19-22, 4-(3-((6-chloro-4-ethoxypyridin-3-yl)carbamoyl)-3-(2-isopropylphenyl)azetidin-1-yl)-2,2-dimethyl-4-oxobutanoic acid]
14 | 1 | COc1cc(Cl)ncc1NC(=O)C1(c2ccccc2C(C)C)CN(c2ncc(C#N)cn2)C1 [Example 24-8, N-(6-chloro-4-methoxypyridin-3-yl)-1-(5-cyanopyrimidin-2-yl)-3-(2-isopropylphenyl)azetidine-3-carboxamide]
15 | 608 | COCCS(=O)(=O)N1CC(C(=O)Nc2cnc(Cl)cc2OC)(c2ccccc2C(C)C)C1 [Example 20-2, N-(6-chloro-4-methoxypyridin-3-yl)-3-(2-isopropylphenyl)-1-((2-methoxyethyl)sulfonyl)azetidine-3-carboxamide]
16 | 4 | COc1cc(Cl)ncc1NC(=O)C1(c2ccccc2C2CCCC2)CN(S(N)(=O)=O)C1 [Example 21-19, N-(6-chloro-4-methoxypyridin-3-yl)-3-(2-cyclopentylphenyl)-1-sulfamoylazetidine-3-carboxamide]
17 | 6 | COc1cc(Br)ncc1NC(=O)C1(c2ccccc2C(C)C)CNC1 [Example 4, N-(6-bromo-4-methoxypyridin-3-yl)-3-(2-isopropylphenyl)azetidine-3-carboxamide]

Row | IC50 [nM] | Compound
18 | 15 | COc1cc(Cl)ncc1NC(=O)C1(c2ccccc2C(C)C)CN(C(=O)Cn2nccn2)C1 [Example 19-7, 1-(2-(2H-1,2,3-triazol-2-yl)acetyl)-N-(6-chloro-4-methoxypyridin-3-yl)-3-(2-isopropylphenyl)azetidine-3-carboxamide]
19 | 145 | COc1cc(Cl)ncc1NC(=O)C1(c2ccccc2C(C)C)CN(c2cnc(C(=O)O)cn2)C1 [Example 24-20, 5-(3-((6-chloro-4-methoxypyridin-3-yl)carbamoyl)-3-(2-isopropylphenyl)azetidin-1-yl)pyrazine-2-carboxylic acid]
20 | 201 | COc1cc(Cl)ncc1NC(=O)C1(c2ccccc2C(C)C)CN(C(=O)N2CCOCC2)C1 [Example 22-16, N-(6-chloro-4-methoxypyridin-3-yl)-3-(2-isopropylphenyl)-1-(morpholine-4-carbonyl)azetidine-3-carboxamide]
21 | 1560 | COc1ccncc1NC(=O)C1(c2ccccc2C(C)C)CN(S(N)(=O)=O)C1 [Example 21-18, 3-(2-isopropylphenyl)-N-(4-methoxypyridin-3-yl)-1-sulfamoylazetidine-3-carboxamide]
22 | 13 | COc1cc(Cl)ncc1NC(=O)C1(c2ccccc2C(C)C)CN(c2nc(C)ncc2F)C1 [Example 24-16, N-(6-chloro-4-methoxypyridin-3-yl)-1-(5-fluoro-2-methylpyrimidin-4-yl)-3-(2-isopropylphenyl)azetidine-3-carboxamide]
23 | 22 | COc1cc(Cl)ncc1NC(=O)C1(c2ccccc2C(C)C)CN(C(N)=O)C1 [Example 22-1, N3-(6-chloro-4-methoxypyridin-3-yl)-3-(2-isopropylphenyl)azetidine-1,3-dicarboxamide]
24 | 42 | COc1cc(C(F)(F)F)ncc1NC(=O)C1(c2ccccc2C(C)C)CN(S(N)(=O)=O)C1 [Example 21-11, 3-(2-isopropylphenyl)-N-(4-methoxy-6-(trifluoromethyl)pyridin-3-yl)-1-sulfamoylazetidine-3-carboxamide]
25 | 43 | COC(=O)C(C)(C)CC(=O)N1CC(C(=O)Nc2cnc(Cl)cc2OC)(c2ccccc2C(C)C)C1 [Example 19-17, methyl 4-(3-((6-chloro-4-methoxypyridin-3-yl)carbamoyl)-3-(2-isopropylphenyl)azetidin-1-yl)-2,2-dimethyl-4-oxobutanoate]
26 | 5 | COc1cc(Cl)ncc1NC(=O)C1(c2ccccc2C(C)C)CCN(c2nc(C)ncc2F)CC1 [Example 24-18, N-(6-chloro-4-methoxypyridin-3-yl)-1-(5-fluoro-2-methylpyrimidin-4-yl)-4-(2-isopropylphenyl)piperidine-4-carboxamide]
27 | 3 | COc1cc(Cl)ncc1NC(=O)C1(c2ccccc2C2CCCC2)CNC1 [Example 17, N-(6-chloro-4-methoxypyridin-3-yl)-3-(2-cyclopentylphenyl)azetidine-3-carboxamide]
28 | 1200 | COc1cc(C(F)(F)F)ncc1NC(=O)C1(c2ccccc2C(C)C)CNC1 [Example 12, 3-(2-isopropylphenyl)-N-(4-methoxy-6-(trifluoromethyl)pyridin-3-yl)azetidine-3-carboxamide]
29 | 47 | COc1cc(Cl)ncc1NC(=O)C1(c2ccccc2C(C)C)CN(CCCC(C)(C)C(=O)O)C1 [Example 18-25, 5-(3-((6-chloro-4-methoxypyridin-3-yl)carbamoyl)-3-(2-isopropylphenyl)azetidin-1-yl)-2,2-dimethylpentanoic acid]
30 | 385 | COc1cc(Cl)ncc1NC(=O)C1(c2ccccc2C(C)C)CN(C(=O)C2COC2)C1 [Example 19-4, N-(6-chloro-4-methoxypyridin-3-yl)-3-(2-isopropylphenyl)-1-(oxetane-3-carbonyl)azetidine-3-carboxamide]
31 | 1 | COc1cc(Cl)ncc1NC(=O)C1(c2ccccc2C(C)C)CN(c2cc(F)ccn2)C1 [Example 24-7, N-(6-chloro-4-methoxypyridin-3-yl)-1-(4-fluoropyridin-2-yl)-3-(2-isopropylphenyl)azetidine-3-carboxamide]
32 | 12 | COc1cc(Cl)ncc1NC(=O)C1(c2ccccc2C(C)C)CN(C2=NC(=O)CO2)C1 [Example 26, N-(6-chloro-4-methoxypyridin-3-yl)-3-(2-isopropylphenyl)-1-(4-oxo-4,5-dihydrooxazol-2-yl)azetidine-3-carboxamide]
33 | 2 | COc1cc(Cl)ncc1NC(=O)C1(c2ccccc2C(C)C)CN(c2cc(C)ncc2F)C1 [Example 24-4, N-(6-chloro-4-methoxypyridin-3-yl)-1-(5-fluoro-2-methylpyridin-4-yl)-3-(2-isopropylphenyl)azetidine-3-carboxamide]

Row | Compound | IC50 [nM]
34 | 4-(4-((6-chloro-4-methoxypyridin-3-yl)carbamoyl)-4-(2-isopropylphenyl)piperidin-1-yl)-2,2-dimethyl-4-oxobutanoic acid [Example 19-20] | 22

From US12479820B2, “Pyridin-3-yl derivatives” (Idorsia Pharmaceuticals Ltd, priority 2019, dated 2025)
